Our source for the IC50 values is patent US20080176870A1, “Heterobicyclic metalloprotease inhibitors” (priority 2006, published 2008).

As a reminder, the IC50 is the concentration needed to halve the response being measured.

The target of this experiment is T1, catalytic domain of MMP-13 enzyme (Homo sapiens, UniProt P45452).
T1 construct: 10 μL of a 50 nM stock solution of catalytic domain of MMP-13 enzyme (produced by Alantos)
As to the kind of experiment: Assay for determining MMP-13 inhibition (fluorescent substrate). Format: biochemical. The settings on record: Table 1, Summary of MMP-13 Activity for Compounds; read-out: MMP-13 Activity (IC50 MMP-13), Group. On the procedure:
Assay for Determining MMP-13 Inhibition
The typical assay for MMP-13 activity is carried out in assay buffer comprised of 50 mM Tris, pH 7.5, 150 mM NaCl, 5 mM CaCl2 and 0.05% Brij-35. Different concentrations of tested compounds are prepared in assay buffer in 50 μL aliquots. 10 μL of a 50 nM stock solution of catalytic domain of MMP-13 enzyme (produced by Alantos) is added to the compound solution. The mixture of enzyme and compound in assay buffer is thoroughly mixed and incubated for 10 min at room temperature. Upon the completion of incubation, the assay is started by addition of 40 μL of a 12.5 μM stock solution of MMP-13 fluorescent substrate (Calbiochem, Cat. No. 444235). The time-dependent increase in fluorescence is measured at the 320 nm excitation and 390 nm emission by automatic plate multireader. The IC50 values are calculated from the initial reaction rates.
On to `Cc1c(C(=O)O)ccc2c1CCC2NCc1cc(C(=O)NCc2ccc(F)c(F)c2)nc2ccnn12` (stereo not shown) [Example 29, 1-{[5-(3,4-difluoro-benzylcarbamoyl)-pyrazolo[1,5-a]pyrimidin-7-ylmethyl]-amino}-4-methyl-indan-5-carboxylic acid], for which the IC50 is < 200 nM. As for `Cc1c(C(=O)O)ccc2c1CCC2N(CC(=O)O)Cc1cc(C(=O)NCc2ccc(F)c(F)c2)nc2ccnn12` (stereo not shown) [Example 32, 1-{carboxymethyl-[5-(3,4-difluoro-benzylcarbamoyl)-pyrazolo[1,5-a]pyrimidin-7-ylmethyl]-amino}-4-methyl-indan-5-carboxylic acid], the IC50 is < 200 nM.

As for `O=C1COc2ccc(CNC(=O)c3cc(-c4nn[nH]n4)n4ncc(F)c4n3)cc2N1` [Example 141], the IC50 is < 200 nM. Then `CC(C)(C)n1nnc(-c2cc(C(=O)NCc3ccc4c(c3)NC(=O)CO4)nc3ccnn23)n1` [Example 152], with < 200 nM. Then `O=C1COc2ccc(CNC(=O)c3cc(-c4nnn(Cc5ccc(C(=O)O)cc5)n4)n4nccc4n3)cc2N1` [Example 160], with < 200 nM. For the compound `CC(C)(C)c1noc(-c2cc(C(=O)NCc3ccc4c(c3)NC(=O)CO4)nc3c(F)cnn23)n1` [Example 163], the IC50 is < 200 nM. `O=C1COc2ccc(CNC(=O)c3cc(C(F)(F)F)n4ncnc4n3)cc2N1` [Example 188]: the IC50 lay within 201 to 20000 nM. Then `N#Cc1cc(C(=O)NCc2ccc3c(c2)NC(=O)CO3)nc2ncnn12` [Example 190], with 201 to 20000 nM; and `Cc1cc(CNC(=O)c2cc(C(=O)O)n3nccc3n2)ccc1F` [Example 193], with 201 to 20000 nM; and `Nc1c(N2CCc3ccc(CNC(=O)c4cc(C(=O)O)n5ncnc5n4)cc3C2)c(=O)c1=O` [Example 195], with 201 to 20000 nM. Then `O=C(NCC12CCC(C(=O)O)(CC1)CC2)Nc1cc(C(=O)NCc2ccc(F)cc2)nc2ccnn12` [Example 208], with < 200 nM; and `O=C(NCc1ccc(F)cc1)c1cc(NC(=O)C23CCC(C(=O)O)(CC2)CC3)n2nccc2n1` [Example 209], with 201 to 20000 nM. Consider `Cc1c(C(=O)O)ccc2c1CC[C@@H]2NC(=O)c1cc(C(=O)NCc2ccc3c(c2)NC(=O)CO3)nc2ccccc12` [Example 211], for which the IC50 is 201 to 20000 nM.
